What was measured:
NSC-34 cells = assay: Cell death, PI staining and flow cytometry, NSC-34; type: cell-based, mouse; conditions: 5 h, serum-free medium, 37°C
Procedure: (§1) NSC-34 cells, a mouse motor neuron-like hybrid cell line, the A549 human lung adenocarcinoma and U-87MG human glioblastoma cell lines were incubated with the (1-26)N-Ter-Antp, D-(15-26)N-Ter-Antp, (1-20)N-Ter-Antp, (5-20)N-Ter-Antp, or (10-20)N-Ter-Antp peptides in the appropriate serum-free growth medium for 5 h at 37°C. Cells were harvested, and analyzed for cell death using propidium iodide (PI) staining and flow cytometry. For XTT, the CellTiter 96 AQueous one-solution cell proliferation assay was used to follow cell viability as described previously ([Leyton-Jaimes et al., 2016]).
(§2) NSC-34 (A), U-87MG (B), or A549 (C) cells were incubated with the indicated concentrations of (1-26)N-Ter-Antp (∙), D-(15-26) (19-26)N-Ter-Antp (▲), (1-20)N-Ter-Antp (∘), (5-20)N-Ter-Antp (□) or (10-20)N-Ter-Antp (◆) peptide for 5 h. Cell death was analyzed using PI staining and flow cytometry. […] Cell viability analysis was performed with the CellTiter 96 AQueous one-solution cell proliferation assay with ELISA at 490 nm. […] The significance of quantitative analysis of triplicates of different biological repeats (n = 3) was performed by Student’s t-test; ^∗∗P < 0.01. […] Twenty-four hours post-transfection, the cells were incubated for 5 h with (10-20)N-Ter-Antp peptide (20 μM) and then analyzed for apoptosis using acridine orange and ethidium bromide staining, as described previously ([McGahon et al., 1995]). Fluorescence microscopy images were analyzed and about 100 to 300 cells were counted for each treatment in representative microscopic fields. The significance of quantitative analysis of triplicates of different biological repeats (n = 3) was performed by one-way Anova; ^∗∗P < 0.01.

[1] = tested on: SOD1^G93A-expressing mESC-derived MNs; assay: Neurite outgrowth of mESC-derived motor neurons; type: cell-based, mouse; conditions: 10 μM, first 24 h; mean ± SEM n = 3, P < 0.05
Procedure: (§3) This cell line carries green fluorescent protein (GFP) under the control of the promoter for the motor neuron (MN)-specific transcription factor HB9 (HB9:GFP cells) ([Di Giorgio et al., 2007]). We used the SOD1^G93A mESC line to derive GFP^+ MNs.
(§4) Motor neuron differentiation was induced as described previously with some modifications ([Wichterle et al., 2002]). Cells were cultured in ADFNB medium composed of advanced D-MEM/F12:Neurobasal (1:1), 0.1 mM 2-mercaptoethanol, and GlutaMAX supplement, B27 supplement, and N2 supplement all from Invitrogen, to form embryoid bodies (EBs), and supplemented with 0.1 μM of retinoic acid (RA, Sigma), as well as 0.5 μM of sonic hedgehog (Shh) agonist Ag1.3 (Curis) every second day.
For an in vitro differentiation assay, EBs were enzymatically dissociated after 7 days in culture with TrypLE Express (Gibco) and seeded on 0.01% poly-l-ornithine (Sigma) pre-coated coverslips followed by laminin (10 μg/ml, Sigma). […]
SOD1^G93A-expressing mESC-derived MNs were incubated with the indicated concentrations of (1-20)N-Ter-Antp peptide for 1–4 days following initiation of final differentiation. […] GFP fluorescence indicates the expression of the motor neuron-specific transcription factor HB9. […] (E) Quantification of MNs survival. For all assays, results are expressed as the mean ± SEM (n = 3). ^*P < 0.05.

[2] = tested on: NSC-34 cells transfected to express human mutant SOD1^G93A; assay: Rescue of mutant SOD1^G93A toxicity, cell viability (XTT / CellTiter 96 AQueous); type: cell-based, mouse; conditions: NSC-34 cells expressing SOD1^G93A, increasing peptide concentrations, 5 h, XTT assay; n = 3
Procedure: as §1, §2
Cell viability was quantified using the XTT assay and apoptosis using acridine orange and ethidium bromide staining. […] Importantly, this effect was observed using the three non-cell death-inducing VDAC1-derived N-terminal peptides, i.e., the (1-20)-N-Ter-Antp, (5-20)-N-Ter-Antp and (10-20)-N-Ter-Antp peptides.

[3] = tested on: SOD1^G93A-expressing mESC-derived MNs; assay: Survival of mESC-derived motor neurons; type: cell-based, mouse
Procedure: as §3, §4
For an in vitro differentiation assay, EBs were enzymatically dissociated after 7 days in culture with TrypLE Express (Gibco) and seeded on 0.01% poly-l-ornithine (Sigma) pre-coated coverslips followed by laminin (10 μg/ml, Sigma). Cells (5 × 10^4) were seeded on coverslip in 24-well plates with ADFNB cell medium supplemented with of Ciliary neurotrophic factor (10 ng/ml, CNTF) and Glial cell-derived neurotrophic factor (GDNF; Miltenyi Biotec). During plating, 1-20N-Ter-Antp VDAC1-peptide was added to the cultures. Half of the medium was replaced with fresh medium every second day and at the indicated time points. The cultures were fixed in 4% paraformaldehyde in PBS.
Stereological estimation of neurite lengths to evaluate neurite outgrowth in cultured cells was carried out as described previously ([Ronn et al., 2000]). The total neuritic length per cell was estimated by counting the number of GFP^+ soma and neurite intersections with test lines of an unbiased counting frame superimposed on images of cell cultures obtained using a 20× objective (NA 0.75) of a Nikon Eclipse E800 epifluorescence microscope equipped with a Nikon DXM1200F CCD camera. The absolute length, L, of neurites per cell was subsequently estimated from the number of neurite intersections, I, per cell by means of the equation L = (πd/2)I describing the relationship between the number of neurite intersections and the vertical distance, d, between the test lines used.
SOD1^G93A-expressing mESC-derived MNs were incubated with the indicated concentrations of (1-20)N-Ter-Antp peptide for 1–4 days following initiation of final differentiation. […] Scale bar, 100 μm. […] GFP fluorescence indicates the expression of the motor neuron-specific transcription factor HB9. Gross cellular morphology of surviving MNs remained unaffected by the (1-20)N-Ter-Antp peptide. Scale bar, 25 μm. (E) Quantification of MNs survival. For all assays, results are expressed as the mean ± SEM (n = 3). ^*P < 0.05.

U-87MG cells = assay: Cell death, PI staining and flow cytometry, U-87MG; type: cell-based, human; conditions: 5 h, serum-free medium, 37°C
Procedure: as §1, §2

A549 cells = assay: Cell death, PI staining and flow cytometry, A549; type: cell-based, human; conditions: 5 h, serum-free medium, 37°C
Procedure: as §1, §2

## 1-MAVPPTYADLGKSARDVFTK-20-RQIKIWFQNRRMKWKK [(1-20)-N-Ter-Antp, like (1-26)-N-Ter-Antp but shortened by six amino acids at the C-terminus]
NSC-34 cells
  Cell death induction in NSC-34 cells: could not induce cell death
[1]
  MN neurite outgrowth: significantly increased MN neurite outgrowth
[2]
  Effect on SOD1^G93A toxicity (cell viability): reduced the toxic effect of SOD1^G93A in a concentration-dependent manner
[3]; 10 μM, 96 h
  improvement of survival of SOD1^G93A-expressing MNs (fold): twofold
[3]; 10 μM, 96 h, n = 3, P < 0.05
  number of surviving MNs over the course of final differentiation: significantly increased the number of surviving MNs
[3]; 5 and 10 μM, 24 h after initiation of differentiation, n = 3, P < 0.05
  number of MNs present in the culture: significantly increased the number of MNs present in the culture
[3]; SOD1^G93A-expressing mESC-derived MNs
  optimal peptide concentration for neurite outgrowth and survival: 10 µM
U-87MG cells
  Cell death induction in U-87MG cells: could not induce cell death
A549 cells
  Cell death induction in A549 cells: could not induce cell death
